According to patent US8063048B2, “Acetylenyl-pyrazolo-pyrimidine derivatives” (Hoffmann-La Roche Inc., priority 2005, dated 2011):

Compound	melting point [°C]
CC(O)c1ccc(C#Cc2cnn3c(C(F)(F)F)cc(-c4ccc(C(F)(F)F)cc4)nc23)cc1 (stereo not shown) [Example 52, 1-{4-[7-Trifluoromethyl-5-(4-trifluoromethyl-phenyl)-pyrazolo[1,5-a]pyrimidin-3-ylethynyl]-phenyl}-ethanol]	175 to 178
Cc1cc(-c2ccc(C(F)(F)F)cc2)nc2c(C#Cc3ccc(S(=O)(=O)NC(CO)CO)s3)cnn12 [Example 308, 5-[7-Methyl-5-(4-trifluoromethyl-phenyl)-pyrazolo[1,5-a]pyrimidin-3-ylethynyl]-thiophene-2-sulfonic acid (2-hydroxy-1-hydroxymethyl-ethyl)-amide]	148 to 152
NC(=O)c1ccc(C#Cc2cnn3c(C(F)(F)F)cc(-c4ccc(C(F)(F)F)cc4)nc23)cc1 [Example 197, 4-[7-Trifluoromethyl-5-(4-trifluoromethyl-phenyl)-pyrazolo[1,5-a]pyrimidin-3-ylethynyl]-benzamide]	260
Nc1cnc(C#Cc2cnn3c(C(F)F)cc(-c4ccc(C(F)(F)F)cc4)nc23)cn1 [Example 287, 5-[7-Difluoromethyl-5-(4-trifluoromethyl-phenyl)-pyrazolo[1,5-a]pyrimidin-3-ylethynyl]-pyrazin-2-ylamine]	233
CC(C)(C)NS(=O)(=O)c1cncc(C#Cc2cnn3c(C(F)(F)F)cc(-c4ccc(C(F)(F)F)cc4)nc23)c1 [Example 17, 5-[7-Trifluoromethyl-5-(4-trifluoromethyl-phenyl)-pyrazolo[1,5-a]pyrimidin-3-ylethynyl]-pyridine-3-sulfonic acid tert-butylamide]	224
CC(C)(C)c1cc(-c2ccc(Cl)cc2)nc2c(C#Cc3ccc(S(N)(=O)=O)s3)cnn12 [Example 307, 5-[7-tert.-Butyl-5-(4-chloro-phenyl)-pyrazolo[1,5-a]pyrimidin-3-ylethynyl]-thiophene-2-sulfonic acid amide]	253 to 255
NS(=O)(=O)c1cccc(C#Cc2cnn3c(C(F)(F)F)cc(-c4ccc(Cl)cc4)nc23)c1 [Example 99, 3-[5-(4-Chloro-phenyl)-7-trifluoromethyl-pyrazolo[1,5-a]pyrimidin-3-ylethynyl]-benzenesulfonamide]	290 to 293
Fc1ccc(C#Cc2cnn3c(C(F)(F)F)cc(-c4ccc(C(F)(F)F)cc4)nc23)cn1 [Example 149, 3-(6-Fluoro-pyridin-3-ylethynyl)-7-trifluoromethyl-5-(4-trifluoromethyl-phenyl)-pyrazolo[1,5-a]pyrimidine]	213 to 216
COc1ccc(C#Cc2cnn3c(C4CC4)cc(-c4ccc(C(F)(F)F)cc4)nc23)cc1S(=O)(=O)NC(C)(C)CO [Example 81, 5-[7-Cyclopropyl-5-(4-trifluoromethyl-phenyl)-pyrazolo[1,5-a]pyrimidin-3-ylethynyl]-N-(2-hydroxy-1,1-dimethyl-ethyl)-2-methoxy-benzenesulfonamide]	192 to 195
COCCNS(=O)(=O)c1ccc(C#Cc2cnn3c(C(F)(F)F)cc(-c4ccc(C(F)(F)F)cc4)nc23)cc1 [Example 124, N-(2-Methoxy-ethyl)-4-[7-trifluoromethyl-5-(4-trifluoromethyl-phenyl)-pyrazolo[1,5-a]pyrimidin-3-ylethynyl]-benzenesulfonamide]	185 to 187
CC(=O)Nc1ccc(C#Cc2cnn3c(C(F)(F)F)cc(-c4ccc(C(F)(F)F)cc4)nc23)cn1 [Example 225, N-{5-[7-Trifluoromethyl-5-(4-trifluoromethyl-phenyl)-pyrazolo[1,5-a]pyrimidin-3-ylethynyl]-pyridin-2-yl}-acetamide]	266
O=S(=O)(c1cccc(C#Cc2cnn3c(C(F)(F)F)cc(-c4ccc(C(F)(F)F)cc4)nc23)c1)N1CCOCC1 [Example 129, 3-[3-(morpholine-4-sulfonyl)-phenylethynyl]-7-trifluoromethyl-5-(4-trifluoromethyl-phenyl)-pyrazolo[1,5-a]pyrimidine]	203 to 204
CC(C)(CO)NS(=O)(=O)c1cccc(C#Cc2cnn3c(C(F)(F)F)cc(-c4ccc(C(F)(F)F)cc4)nc23)c1 [Example 4, N-(2-Hydroxy-1,1-dimethyl-ethyl)-3-[7-trifluoromethyl-5-(4-trifluoromethyl-phenyl)-pyrazolo[1,5-a]pyrimidin-3-ylethynyl]-benzenesulfonamide]	201 to 204
NS(=O)(=O)c1ccc(C#Cc2cnn3c(C(F)(F)F)cc(-c4cccc(C(F)(F)F)c4)nc23)cc1 [Example 113, 4-[7-Trifluoromethyl-5-(3-trifluoromethyl-phenyl)-pyrazolo[1,5-a]pyrimidin-3-ylethynyl]-benzenesulfonamide]	264
Nc1ccc(C#Cc2cnn3c(C4CC4)cc(-c4ccc(Cl)cc4)nc23)cn1 [Example 294, 5-[5-(4-Chloro-phenyl)-7-cyclopropyl-pyrazolo[1,5-a]pyrimidin-3-ylethynyl]-pyridin-2-ylamine]	233 to 235
NS(=O)(=O)c1cncc(C#Cc2cnn3c(C4CC4)cc(-c4ccc(C(F)(F)F)cc4)nc23)c1 [Example 79, 5-[7-Cyclopropyl-5-(4-trifluoromethyl-phenyl)-pyrazolo[1,5-a]pyrimidin-3-ylethynyl]-pyridine-3-sulfonic acid amide]	276 to 277
Cc1nc(C#Cc2cnn3c(C(F)(F)F)cc(-c4ccc(C(F)(F)F)cc4)nc23)sc1S(N)(=O)=O [Example 54, 4-Methyl-2-[7-trifluoromethyl-5-(4-trifluoromethyl-phenyl)-pyrazolo[1,5-a]pyrimidin-3-ylethynyl]-thiazole-5-sulfonic acid amide]	245 to 246
CN(C)CCNS(=O)(=O)c1cccc(C#Cc2cnn3c(C(F)F)cc(-c4ccc(C(F)(F)F)cc4)nc23)c1 [Example 148, 3-[7-Difluoromethyl-5-(4-trifluoromethyl-phenyl)-pyrazolo[1,5-a]pyrimidin-3-ylethynyl]-N-(2-dimethylamino-ethyl)-benzenesulfonamide]	160 to 162
CC(C)(CO)NS(=O)(=O)c1cncc(C#Cc2cnn3ccc(-c4ccc(Cl)cc4)nc23)c1 [Example 74, 5-[5-(4-Chloro-phenyl)-pyrazolo[1,5-a]pyrimidin-3-ylethynyl]-pyridine-3-sulfonic acid (2-hydroxy-1,1-dimethyl-ethyl)-amide]	185 to 186
CC(C)(CO)NS(=O)(=O)c1cccc(C#Cc2cnn3c(C(F)(F)F)cc(-c4cccc(C(F)(F)F)c4)nc23)c1 [Example 107, N-(2-Hydroxy-1,1-dimethyl-ethyl)-3-[7-trifluoromethyl-5-(3-trifluoromethyl-phenyl)-pyrazolo[1,5-a]pyrimidin-3-ylethynyl]-benzenesulfonamide]	132

Next, values leading:

melting point [°C]	Compound
241 to 244	Nc1ccc(C#Cc2cnc3ccc(-c4ccc(C(F)(F)F)cc4)cn23)cn1 [Example 237, 5-[6-(4-Trifluoromethyl-phenyl)-imidazo[1,2-a]pyridin-3-ylethynyl]-pyridin-2-ylamine]
205 to 206	CCc1cc(-c2ccc(Cl)cc2)nc2c(C#Cc3ccc(N)nc3)cnn12 [Example 304, 5-[5-(4-Chloro-phenyl)-7-ethyl-pyrazolo[1,5-a]pyrimidin-3-ylethynyl]-pyridin-2-ylamine]
199	NS(=O)(=O)c1cccc(C#Cc2cnn3c(C(F)F)cc(-c4cccc(C(F)(F)F)c4)nc23)c1 [Example 167, 3-[7-Difluoromethyl-5-(3-trifluoromethyl-phenyl)-pyrazolo[1,5-a]pyrimidin-3-ylethynyl]-benzenesulfonamide]
239 to 240	NS(=O)(=O)c1ccc(C#Cc2cnn3c(C(F)(F)F)cc(-c4ccc(Cl)cc4)nc23)s1 [Example 97, 5-[5-(4-Chloro-phenyl)-7-trifluoromethyl-pyrazolo[1,5-a]pyrimidin-3-ylethynyl]-thiophene-2-sulfonic acid amide]
261	NS(=O)(=O)c1ccc(C#Cc2cnc3c(C4CC4)cc(-c4ccc(C(F)(F)F)cc4)cn23)s1 [Example 224, 5-[8-Cyclopropyl-6-(4-trifluoromethyl-phenyl)-imidazo[1,2-a]pyridin-3-ylethynyl]-thiophene-2-sulfonic acid amide]
191 to 194	O=S(=O)(NCCO)c1ccc(C#Cc2cnn3c(C(F)F)cc(-c4ccc(C(F)(F)F)cc4)nc23)cc1 [Example 140, 4-[7-Difluoromethyl-5-(4-trifluoromethyl-phenyl)-pyrazolo[1,5-a]pyrimidin-3-ylethynyl]-N-(2-hydroxy-ethyl)-benzenesulfonamide]
192 to 194	CNS(=O)(=O)c1cccc(C#Cc2cnn3c(C(F)F)cc(-c4ccc(C(F)(F)F)cc4)nc23)c1 [Example 145, 3-[7-Difluoromethyl-5-(4-trifluoromethyl-phenyl)-pyrazolo[1,5-a]pyrimidin-3-ylethynyl]-N-methyl-benzenesulfonamide]
213 to 214	Nc1ccc(C#Cc2cnn3ccc(-c4ccc(C(F)(F)F)cc4)nc23)cn1 [Example 310, 5-[5-(4-Trifluoromethyl-phenyl)-pyrazolo[1,5-a]pyrimidin-3-ylethynyl]-pyridin-2-ylamine]
228 to 231	CC(CO)(CO)NS(=O)(=O)c1cncc(C#Cc2cnn3c(C(F)(F)F)cc(-c4ccc(C(F)(F)F)cc4)nc23)c1 [Example 14, 5-[7-Trifluoromethyl-5-(4-trifluoromethyl-phenyl)-pyrazolo[1,5-a]pyrimidin-3-ylethynyl]-pyridine-3-sulfonic acid (2-hydroxy-1-hydroxymethyl-1-methyl-ethyl)-amide]
235	NS(=O)(=O)c1cnc(C#Cc2cnn3c(C(F)(F)F)cc(-c4ccc(C(F)(F)F)cc4)nc23)s1 [Example 29, 2-[7-Trifluoromethyl-5-(4-trifluoromethyl-phenyl)-pyrazolo[1,5-a]pyrimidin-3-ylethynyl]-thiazole-5-sulfonic acid amide]
165 to 166	CN(C)CCNS(=O)(=O)c1cc(C#Cc2cnn3c(C(F)F)cc(-c4ccc(C(F)(F)F)cc4)nc23)c(F)cc1F [Example 134, 5-[7-Difluoromethyl-5-(4-trifluoromethyl-phenyl)-pyrazolo[1,5-a]pyrimidin-3-ylethynyl]-N-(2-dimethylamino-ethyl)-2,4-difluoro-benzenesulfonamide]
